In general, AUC refers to concentration integrated over time. High values mean high exposure, low ones low exposure. One may read the Cmax as the highest concentration seen after dosing.

The source of these data is US20140023611A1 (priority 2010, published 2014).

In data set [1] the target is T1, rat NaP2b (SLC34A2) (Rattus norvegicus, UniProt Q9JJ09).
T1 construct: host or cells: HEK293
T1 sequence (Q9JJ09 1-695): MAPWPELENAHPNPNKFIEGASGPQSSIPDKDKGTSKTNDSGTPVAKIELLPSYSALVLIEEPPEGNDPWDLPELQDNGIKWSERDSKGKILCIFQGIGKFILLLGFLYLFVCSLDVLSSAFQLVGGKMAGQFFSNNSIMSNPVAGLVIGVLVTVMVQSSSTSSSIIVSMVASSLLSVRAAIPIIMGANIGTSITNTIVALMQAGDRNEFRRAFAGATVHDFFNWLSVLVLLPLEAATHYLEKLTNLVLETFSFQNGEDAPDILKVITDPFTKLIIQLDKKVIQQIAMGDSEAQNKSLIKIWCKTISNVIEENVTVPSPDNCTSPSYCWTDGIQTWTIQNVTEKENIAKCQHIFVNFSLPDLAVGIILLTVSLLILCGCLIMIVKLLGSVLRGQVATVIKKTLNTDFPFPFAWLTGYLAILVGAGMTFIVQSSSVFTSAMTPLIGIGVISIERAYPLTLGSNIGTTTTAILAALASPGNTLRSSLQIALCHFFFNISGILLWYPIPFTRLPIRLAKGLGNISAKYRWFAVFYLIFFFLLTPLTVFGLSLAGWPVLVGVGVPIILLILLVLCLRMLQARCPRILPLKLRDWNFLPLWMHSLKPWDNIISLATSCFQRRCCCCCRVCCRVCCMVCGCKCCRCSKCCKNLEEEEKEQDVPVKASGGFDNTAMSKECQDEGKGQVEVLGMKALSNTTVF
Briefly: NaP2b-mediated Pi transport (33P uptake) in transfected HEK293 cells, rat NaP2b. Type of data set: cell-based. Conditions: Table 2. As for the experimental part: HEK293 cells were obtained from the American Type Culture collection and propagated per their instructions. Expression clones for rat and human NaP2b (SLC34A2) were obtained from Open Biosystems (Catalog numbers MRN1768-9510282, and MHS1010-99823026, respectively). The sequence of the human protein was mutated to insert a threonine after residue 37, and to introduce a N39D mutation.
The rate of phosphate (Pi) uptake into HEK293 cells was measured using a modification of the method described by Mohrmann et al. (Mohrmann, I., Mohrmann, M., Biber, J., and Murer, H. (1986) Am. J. Phys. 250(3 Pt 1):G323-30.) Transfected HEK293 cells were treated with a pharmacological agent to minimize endogenous PiT-mediated phosphate transport activity, such that the only remaining sodium-dependent phosphate transport activity is that which was bestowed by introduction of the NaP2b genes.
(§1) Cells were seeded into 96-well plates at 25,000 cells/well and cultured overnight. Lipofectamine 2000 (Invitrogen) was used to introduce the NaP2b cDNA, and the cells were allowed to approach confluence during a second overnight incubation. […] Cells were then overlayed with either choline uptake buffer or sodium uptake buffer (14 mM Tris, 137 mM sodium chloride, 5.4 mM KCl, 2.8 mM CaCl2, 1.2 mM MgSO4, 100 uM KH2PO4, PiT-silencing agent, 1 mg/mL Bovine Serum Albumin, pH 7.4) containing 6-9 uCi/mL ^33P orthophosphoric acid (Perkin Elmer) and test compound. Each compound was tested at twelve concentrations ranging from 0.1 nM to 30 uM. Assays were run in duplicate.
After incubation for 3-30 minutes at room temperature, assay mixtures were removed, and the cells were washed twice with ice cold stop solution (137 mM sodium chloride, 14 mM Tris, pH 7.4). Cells were lysed by addition of 20 μL 0.1% Tween 80 followed by 100 μL scintillation fluid, and counted using a TopCount (Perkin Elmer).
pIC50 (the negative log of the IC50) values of the test compounds were calculated using GraphPad Prism.
HEK293 cells were obtained from the American Type Culture collection and propagated per their instructions. Expression clones for rat and mouse NaP2b (SLC34A2) cDNAs were obtained from Open Biosystems (Catalog numbers MRN1768-9510282 and MMM1013-98478398 respectively).
The rate of phosphate uptake into HEK293 cells was measured using a modification of the method described by Mohrmann et al. (Mohrmann, I., Mohrmann, M., Biber, J., and Murer, H. (1986) Am. J. Phys. 250(3 Pt 1):G323-30.) Transfected HEK293 cells were treated with a pharmacological agent to minimize endogenous PiT-mediated phosphate transport activity, such that the only remaining sodium-dependent phosphate transport activity is that which was bestowed by introduction of the NaP2b genes.
as §1, with “agent, 0.1% wt/v bovine serum albumin,” for “agent, 1 mg/mL Bovine Serum Albumin,”, “Each compounds” for “Each compound”
After incubation for 3-30 minutes at room temperature, assay mixtures were removed, and the cells were washed twice with ice cold stop solution (137 mM sodium chloride, 14 mM Tris, pH 7.4).

Data set [2] in a line: Stability of compounds in simulated intestinal fluid (SIF). Type of data set: in vitro ADME. Particulars: simulated intestinal fluid (3 mg/mL pancreatin), incubation time 6 hr, relative to t=0. In a few lines: (§2)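 Compounds at […] were incubated 3 or 6 hr in USP simulated gastric fluid with 3 mg/mL pepsin or simulated intestinal fluid with 3 mg/mL pancreatin. Remaining compound was quantified by HPLC-UV or HPLC-MS peak area % and reported as percent of the t=0 level in the same medium.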

Data set [3] is described as follows: Determination of compound Cmax and AUC after oral gavage (plasma LC-MS/MS). Format: in vivo, Sprague-Dawley rats. Conditions: Sprague-Dawley, rat, plasma, po, Structure (I) examples, Table 15, actual oral dose 3-15 mg/kg, plasma 0.5-4 h. The method, boiled down:
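Sprague-Dawley rats dosed by oral gavage at nominal 2.5 or 10 mg/kg; blood drawn at 0.5, 1, 2 and 4 h into K2EDTA. Plasma protein-precipitated with acetonitrile plus internal standard and analysed by LC-MS/MS against a plasma standard curve to derive Cmax and AUC.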

The target in data set [4] is T1, rat NaP2b (SLC34A2). Kind of data set: Inhibition of NaP2b-mediated Pi (33P) uptake in transfected HEK293 cells, rat NaP2b. Type of data set: cell-based. Particulars: 33P Pi uptake, 0.1 mM phosphate, value given as pIC50 range. The method, boiled down: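 HEK293 cells were transiently transfected with NaP2b cDNA using Lipofectamine and grown near confluence. Compounds were tested at twelve concentrations from 0.1 nM to 30 uM in duplicate, and 33P-phosphate uptake was counted by scintillation after lysis. Results are expressed as pIC50.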

Data set [5] is described as follows: Fecal recovery of orally administered compounds. Format: in vivo, Sprague-Dawley rats. Conditions: Structure (I) examples, Table 16; rat, oral gavage, feces collected until 48 hr after dosing.
From the text: The animals were kept in metabolic cages and feces were collected from the time of dosing until 48 hr after dosing. Upon collection, feces were dried by lyophilization and ground to a visually homogenous powder. Duplicate samples of ground feces from each individual animal were weighed out and extracted using organic solvent. […] Extraction conditions were not optimized for individual compounds, and thus may represent a minimal level of recovery.
(§3) The animals were kept in metabolic cages and feces were collected from the time of dosing until 48 hr after dosing. Upon collection, feces was dried by lyophilization and ground to a visually homogenous powder. Duplicate samples of ground feces from each individual animal were weighed out and extracted using organic solvent. […] Extraction conditions were not optimized for individual compounds, and thus may represent a minimal level of recovery.
as §3
The animals were kept in metabolic cages and feces were collected from the time of dosing until 48 hr after dosing. Upon collection, feces was dried by lyophilization and ground to a visually homogenous powder. Duplicate samples of ground feces from each individual animal were weighed out and extracted using organic solvent.

Data set [6] can be described thus: Stability of compounds in simulated gastric fluid (SGF). Format: in vitro ADME. Conditions: simulated gastric fluid (3 mg/mL pepsin), incubation time 6 hr, relative to t=0. The method, boiled down: as §2
[7] abbreviates: Structure (V) examples, rat NaP2b, HEK293, read-out: pIC50 Range (converted).

Some results are limits rather than exact numbers.

With `O=C(Nc1ccc(N2CCCCC2)cc1C(=O)N/N=C/c1ccc(Cl)c(C(F)(F)F)c1)c1cccc(Cn2cc(CCOCCOCCOCCNC(=O)C(O)C(O)C(=O)O)nn2)c1` (centres unmarked) [Ex. 27], the IC50 on rat NaP2b (SLC34A2) [1] (setting [7]) is 10000 to 100000 nM.
Take `O=C(CCOCCOCCOCCOCCOCCOCCOCCOCCSCc1cccc(C(=O)Nc2ccc(N3CCCCC3)cc2C(=O)N/N=C/c2ccc(Cl)c(C(F)(F)F)c2)c1)N[C@H]1C(O)O[C@H](CO)[C@@H](O)[C@@H]1O` (some centres unmarked) [Ex. 28]: the IC50 at rat NaP2b (SLC34A2) [1] (setting [7]) was 10000 to 100000 nM.
Same read-out and setting: in the case of `O=C(O)CCOCCOCCOCCOCCOCCOCCOCCOCCSCc1cccc(C(=O)Nc2ccc(Cl)cc2C(=O)N/N=C/c2ccc(Cl)c(C(F)(F)F)c2)c1` [Ex. 29] it was 100 to 794 nM.
In the case of `O=C(Nc1ccc(Cl)cc1C(=O)N/N=C/c1ccc(Cl)c(C(F)(F)F)c1)c1cccc(Cn2cc(CCO)nn2)c1` [Ex. 30], the IC50 at rat NaP2b (SLC34A2) [1] (setting [7]) was 10 to 79.4 nM.
Consider `O=C(Nc1ccc(N2CCCCC2)cc1C(=O)N/N=C/c1ccc(Cl)c(C(F)(F)F)c1)c1cccc(C#CCCO)c1` [Ex. 31], for which the IC50 at rat NaP2b (SLC34A2) [1] (setting [7]) is 10 to 79.4 nM.
For the compound `[N-]=[N+]=NCCOCCOCCOCCNCc1cccc(C(=O)Nc2ccc(N3CCCCC3)cc2C(=O)N/N=C/c2ccc(Cl)c(C(F)(F)F)c2)c1` [Ex. 32], the IC50 at rat NaP2b (SLC34A2) [1] (setting [7]) is 100 to 794 nM.
For `[N-]=[N+]=NCCOCCOCCOCCNC(=O)CCSCc1cccc(C(=O)Nc2ccc(N3CCCCC3)cc2C(=O)N/N=C/c2ccc(Cl)c(C(F)(F)F)c2)c1` [Ex. 33], the IC50 on rat NaP2b (SLC34A2) [1] (setting [7]) was 100 to 794 nM.
The same measure, in the same setting: to `[N-]=[N+]=NCCOCCOCCOCCNC(=O)C1CCN(Cc2cccc(C(=O)Nc3ccc(N4CCCCC4)cc3C(=O)N/N=C/c3ccc(Cl)c(C(F)(F)F)c3)c2)CC1` [Ex. 34] belongs 100 to 794 nM; to `CC(=O)N[C@@H](CCCCNC(=O)CCSCc1cccc(C(=O)Nc2ccc(N3CCCCC3)cc2C(=O)N/N=C/c2ccc(Cl)c(C(F)(F)F)c2)c1)C(=O)O` [Ex. 35], 1000 to 7940 nM; to `O=C(Nc1ccc(N2CCCCC2)cc1C(=O)N/N=C/c1ccc(Cl)c(C(F)(F)F)c1)c1cccc(Cc2nc(CCO)cs2)c1` [Ex. 45, (E)-N-(2-(2-(4-chloro-3-(trifluoromethyl)benzylidene)hydrazine-carbonyl)-4-(piperidin-1-yl)phenyl)-3-((4-(2-hydroxyethyl)thiazol-2-yl)methyl)benzamide], 100 to 794 nM.
Same read-out and setting: in the case of `O=C(CCSCc1cccc(C(=O)Nc2ccc(N3CCCCC3)cc2C(=O)N/N=C/c2ccc(Cl)c(C(F)(F)F)c2)c1)Nc1ccc(B(O)O)cc1` [Ex. 46, (E)-4-(3-(3-(2-(2-(4-chloro-3-(trifluoromethyl)benzylidene)hydrazinecarbonyl)-4-(piperidin-1-yl)phenylcarbamoyl)benzylthio)propanamido)phenylboronic acid] it was 100 to 794 nM; in that of `COCCNC(=O)CC[S+]([O-])Cc1cccc(C(=O)Nc2ccc(N3CCCCC3)cc2C(=O)N/N=C/c2ccc(Cl)c(C(F)(F)F)c2)c1` (centres unmarked) [Ex. 51, (E)-N-(2-(2-(4-chloro-3-(trifluoromethyl)benzylidene)hydrazinecarbonyl)-4-(piperidin-1-yl)phenyl)-3-((3-(2-methoxyethylamino)-3-oxopropylsulfinyl)methyl)benzamide], 100 to 794 nM.
Same read-out and setting: in the case of `O=C(Nc1ccc(N2CCCCC2)cc1C(=O)N/N=C/c1ccc(Cl)c(C(F)(F)F)c1)c1cccc(Cn2cc(CO)nn2)c1` [Example 8] it was 100 to 794 nM; in that of `NCc1cn(Cc2cccc(C(=O)Nc3ccc(N4CCCCC4)cc3C(=O)N/N=C/c3ccc(Cl)c(C(F)(F)F)c3)c2)nn1` [Example 10], 1000 to 7940 nM; in that of `NC(Cc1cn(Cc2cccc(C(=O)Nc3ccc(N4CCCCC4)cc3C(=O)N/N=C/c3ccc(Cl)c(C(F)(F)F)c3)c2)nn1)C(=O)O` (centres unmarked) [Example 11], 1000 to 7940 nM.
For the compound `O=C(O)CCSCc1cccc(C(=O)Nc2ccc(N3CCCCC3)cc2C(=O)Nc2cnc(-c3cccc(C(F)(F)F)c3)cn2)c1` [Example 12], at rat NaP2b (SLC34A2) [1] (Structure (III) examples, HEK293, 0.1 mM phosphate, read-out: pIC50 range for rat Nap2b (converted)), the IC50 was 1000 to 7940 nM.
As for `O=C(O)c1ccc(-c2cn(Cc3cccc(C(=O)Nc4ccc(N5CCCCC5)cc4C(=O)N/N=C/c4ccc(Cl)c(C(F)(F)F)c4)c3)nn2)cc1` [Example 12], on rat NaP2b (SLC34A2) [1] (setting [7]), the IC50 is 100 to 794 nM.
Turning to `O=C(O)CCOCCOCCOCCNC(=O)c1cccc(SCc2cccc(C(=O)Nc3ccc(Cl)cc3-c3cc(C(=O)NCc4cccc(C(F)(F)F)c4)ccn3)c2)c1` [Example 264, 1-(3-(3-(4-chloro-2-(4-(3-(trifluoromethyl)benzylcarbamoyl)pyridin-2-yl)phenylcarbamoyl)benzylthio)phenyl)-1-oxo-5,8,11-trioxa-2-azatetradecan-14-oic acid], in data set [2], the “% remaining, SIF” value was more than 80%. In data set [3], the AUC is less than 10 ng·h/mL and the Cmax is less than 10 ng/mL. At rat NaP2b (SLC34A2) [4], this compound had an IC50 of 10000 to 31600 nM. For the same compound, the “% recovered in feces” value in data set [5] was less than 20%. Moreover, the “% remaining, SGF” value in data set [6] is listed as 40-60%.
